Measurements taken from patent US9643970B2, “Substituted imidazo [1,5-a]pyrazines as PDE9 inhibitors” (H Lundbeck A/S, priority 2012, dated 2017).
Like-named read-outs stand apart in the source and are kept apart here.

Target: PDE9 (Homo sapiens, UniProt O76083)
Test: PDE9 inhibition assay
Assay type: biochemical
Description: Reactions are initiated by addition of the cyclic nucleotide substrate, and reactions are allowed to proceed for one hr at room temperature before being terminated through mixing with 15 uL 8 mg/mL yttrium silicate SPA beads (Amersham). […] IC50 values were calculated by non linear regression using XLfit (IDBS).

[1] = SPA assay, 10 nM 3H-cAMP, 1 hour incubation, read-out: IC50

Chain of PDE9 (O76083 whole entry): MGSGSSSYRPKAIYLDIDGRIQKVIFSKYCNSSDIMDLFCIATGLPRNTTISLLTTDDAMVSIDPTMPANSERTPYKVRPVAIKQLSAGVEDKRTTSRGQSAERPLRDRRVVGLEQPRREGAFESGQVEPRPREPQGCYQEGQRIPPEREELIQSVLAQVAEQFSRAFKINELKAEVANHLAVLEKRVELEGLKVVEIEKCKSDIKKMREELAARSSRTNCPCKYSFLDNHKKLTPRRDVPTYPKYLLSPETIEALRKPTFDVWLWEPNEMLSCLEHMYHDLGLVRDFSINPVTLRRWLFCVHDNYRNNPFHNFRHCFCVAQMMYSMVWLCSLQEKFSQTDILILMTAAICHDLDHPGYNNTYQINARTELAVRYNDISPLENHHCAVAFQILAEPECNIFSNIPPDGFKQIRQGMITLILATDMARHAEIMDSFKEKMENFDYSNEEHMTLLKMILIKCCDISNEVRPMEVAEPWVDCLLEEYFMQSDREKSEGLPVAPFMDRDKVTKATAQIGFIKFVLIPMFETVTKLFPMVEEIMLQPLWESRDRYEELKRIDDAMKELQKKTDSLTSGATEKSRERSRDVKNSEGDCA

Row | SMILES | IC50 [1] [nM] | IC50 [nM]
1 | O=c1[nH]c(CN2CC(Oc3ccc(OC(F)(F)F)cc3)C2)cn2c(-c3ccc(F)cc3)ncc12 [Compound 74, 3-(4-fluorophenyl)-6-[[3-[4-(trifluoromethoxy)phenoxy]azetidin-1-yl]methyl]-7h-imidazo[1,5-a]pyrazin-8-one] | 16 | 
2 | CC(c1cn2c(-c3ccccc3)ncc2c(=O)[nH]1)N1CC(c2ncccn2)C1 (stereo not shown) [Compound 36, 3-phenyl-6-[1-(3-pyrimidin-2-ylazetidin-1-yl)ethyl]-7h-imidazo[1,5-a]pyrazin-8-one] | 79 | 
3 | O=c1[nH]c(CN2CCC(Nc3ccccc3)C2)cn2c(-c3ccccc3)ncc12 (stereo not shown) [Compound 17, 6-[(3-anilinopyrrolidin-1-yl)methyl]-3-phenyl-7h-imidazo[1,5-a]pyrazin-8-one] | 28 | 
4 | O=c1[nH]c(CN2CC(Oc3cnccn3)C2)cn2c(-c3ccc(F)cc3)ncc12 [Compound 55, 3-(4-fluorophenyl)-6-[(3-pyrazin-2-yloxyazetidin-1-yl)methyl]-7h-imidazo[1,5-a]pyrazin-8-one] | 9 | 
5 | O=c1[nH]c(CN2CC(c3ccc(F)cc3)C2)cn2c(-c3ccccc3)ncc12 [Compound 19, 6-[[3-(4-fluorophenyl)azetidin-1-yl]methyl]-3-phenyl-7h-imidazo[1,5-a]pyrazin-8-one] |  | 69
6 | O=c1[nH]c(CN2CC(Oc3ccc(OC(F)(F)F)cc3)C2)cn2c(C3CCOCC3)ncc12 [Compound 64, 3-tetrahydropyran-4-yl-6-[[3-[4-(trifluoromethoxy)phenoxy]azetidin-1-yl]methyl]-7h-imidazo[1,5-a]pyrazin-8-one] | 13 | 
7 | COC1CN(C(C)c2cn3c(-c4ccc(F)cc4)ncc3c(=O)[nH]2)C1 (stereo not shown) [Compound 1, 3-(4-fluorophenyl)-6-[1-(3-methoxyazetidin-1-yl)ethyl]-7h-imidazo[1,5-a]pyrazin-8-one] | 73 | 
8 | CC1CN(Cc2ccc(F)cc2)CC1c1cn2c(C3CCOCC3)ncc2c(=O)[nH]1 (stereo not shown) [Compound 89, 6-[1-[(4-fluorophenyl)methyl]-4-methyl-pyrrolidin-3-yl]-3-tetrahydropyran-4-yl-7h-imidazo[1,5-a]pyrazin-8-one] | 7 | 
9 | CC(c1cn2c(-c3ccccc3)ncc2c(=O)[nH]1)N1CC(c2ccccc2)C1 (stereo not shown) [Compound 18, 3-phenyl-6-[1-(3-phenylazetidin-1-yl)ethyl]-7h-imidazo[1,5-a]pyrazin-8-one] |  | 54
10 | CC1CN(Cc2ccc(F)cc2)CC1c1cn2c(-c3ccc(Cl)cc3)ncc2c(=O)[nH]1 (stereo not shown) [Compound 110, 3-(4-chlorophenyl)-6-[1-[(4-fluorophenyl)methyl]-4-methyl-pyrrolidin-3-yl]-7h-imidazo[1,5-a]pyrazin-8-one] | 36 | 
11 | CC1CN(Cc2ccccn2)CC1c1cn2c(-c3ccccc3)ncc2c(=O)[nH]1 (stereo not shown) [Compound 43, 6-[4-methyl-1-(2-pyridylmethyl)pyrrolidin-3-yl]-3-phenyl-7h-imidazo[1,5-a]pyrazin-8-one] | 14 | 
12 | O=c1[nH]c(CN2CCC(c3cccc(C(F)(F)F)c3)C2)cn2c(C3CCOC3)ncc12 (stereo not shown) [Compound 125, 3-tetrahydrofuran-3-yl-6-[[3-[3-(trifluoromethyl)phenyl]pyrrolidin-1-yl]methyl]-7h-imidazo[1,5-a]pyrazin-8-one] | 48 | 
13 | CCc1ccc(C2CN(Cc3cn4c(-c5ccccc5)ncc4c(=O)[nH]3)C2)cc1 [Compound 11, 6-[[3-(4-ethylphenyl)azetidin-1-yl]methyl]-3-phenyl-7h-imidazo[1,5-a]pyrazin-8-one] |  | 127
14 | O=c1[nH]c(CN2CC(OCc3ccccc3)C2)cn2c(-c3ccc(F)cc3)ncc12 [Compound 45, 6-[(3-benzyloxyazetidin-1-yl)methyl]-3-(4-fluorophenyl)-7h-imidazo[1,5-a]pyrazin-8-one] | 1 | 
15 | CC(c1cn2c(-c3ccccc3)ncc2c(=O)[nH]1)N1CC(Oc2ccccc2)C1 (stereo not shown) [Compound 25, 6-[1-(3-phenoxyazetidin-1-yl)ethyl]-3-phenyl-7h-imidazo[1,5-a]pyrazin-8-one] |  | 28
16 | O=c1[nH]c(CN2CC(Oc3ccc(F)cc3)C2)cn2c(-c3ccc(F)cc3)ncc12 [Compound 63, 6-[[3-(4-fluorophenoxy)azetidin-1-yl]methyl]-3-(4-fluorophenyl)-7h-imidazo[1,5-a]pyrazin-8-one] | 13 | 
17 | CC(C)OC1CN(Cc2cn3c(C4CCCC4)ncc3c(=O)[nH]2)C1 [Compound 57, 3-cyclopentyl-6-[(3-isopropoxyazetidin-1-yl)methyl]-7h-imidazo[1,5-a]pyrazin-8-one] |  | 17
18 | CC(c1cn2c(-c3ccccc3)ncc2c(=O)[nH]1)N1CC(c2ccc(C#N)cc2)C1 (stereo not shown) [Compound 38, 4-[1-[1-(8-oxo-3-phenyl-7h-imidazo[1,5-a]pyrazin-6-yl)ethyl]azetidin-3-yl]benzonitrile] | 23 | 
19 | CC(c1cn2c(C3CCCC3)ncc2c(=O)[nH]1)N1CC(Oc2ccc(F)cc2)C1 (stereo not shown) [Compound 47, 3-cyclopentyl-6-[1-[3-(4-fluorophenoxy)azetidin-1-yl]ethyl]-7h-imidazo[1,5-a]pyrazin-8-one] |  | 3
20 | O=c1[nH]c(CN2CC(Oc3ccccc3F)C2)cn2c(C3CCOCC3)ncc12 [Compound 50, 6-[[3-(2-fluorophenoxy)azetidin-1-yl]methyl]-3-tetrahydropyran-4-yl-7h-imidazo[1,5-a]pyrazin-8-one] |  | 21
21 | O=c1[nH]c(CN2CC(c3ccccn3)C2)cn2c(C3CCOCC3)ncc12 [Compound 62, 6-[[3-(2-pyridyl)azetidin-1-yl]methyl]-3-tetrahydropyran-4-yl-7h-imidazo[1,5-a]pyrazin-8-one] |  | 78
22 | O=c1[nH]c(CN2CCC(Oc3ccccc3)C2)cn2c(-c3ccc(F)cc3)ncc12 (stereo not shown) [Compound 85, 3-(4-fluorophenyl)-6-[(3-phenoxypyrrolidin-1-yl)methyl]-7h-imidazo[1,5-a]pyrazin-8-one] | 140 | 

More lines, now with the values ahead:

Row | IC50 [1] [nM] | IC50 [nM] | SMILES
23 | 34 |  | O=c1[nH]c(CN2CC(OCc3ccc(Cl)cc3)C2)cn2c(-c3ccc(F)cc3)ncc12 [Compound 108, 6-[[3-[(4-chlorophenyl)methoxy]azetidin-1-yl]methyl]-3-(4-fluorophenyl)-7h-imidazo[1,5-a]pyrazin-8-one]
24 |  | 18 | O=c1[nH]c(CN2CC(Oc3ccccc3F)C2)cn2c(-c3ccccc3)ncc12 [Compound 33, 6-[[3-(2-fluorophenoxy)azetidin-1-yl]methyl]-3-phenyl-7h-imidazo[1,5-a]pyrazin-8-one]
25 |  | 3 | O=c1[nH]c(CN2CC(Oc3cccnc3)C2)cn2c(-c3ccc(F)cc3)ncc12 [Compound 88, 3-(4-fluorophenyl)-6-[[3-(3-pyridyloxy)azetidin-1-yl]methyl]-7h-imidazo[1,5-a]pyrazin-8-one]
26 |  | 38 | COc1ccc(C2CN(Cc3cn4c(-c5cc(F)cc(F)c5)ncc4c(=O)[nH]3)C2)cc1 [Compound 122, 3-(3,5-difluorophenyl)-6-[[3-(4-methoxyphenyl)azetidin-1-yl]methyl]-7h-imidazo[1,5-a]pyrazin-8-one]
27 | 17 |  | CC1CN(Cc2ccc(F)cc2)CC1c1cn2c(-c3ccc(F)cc3)ncc2c(=O)[nH]1 (stereo not shown) [Compound 99, 3-(4-fluorophenyl)-6-[1-[(4-fluorophenyl)methyl]-4-methyl-pyrrolidin-3-yl]-7h-imidazo[1,5-a]pyrazin-8-one]
28 |  | 76 | N#Cc1ccc(OC2CN(Cc3cn4c(-c5ccc(F)cc5)ncc4c(=O)[nH]3)C2)cc1 [Compound 92, 4-[1-[[3-(4-fluorophenyl)-8-oxo-7h-imidazo[1,5-a]pyrazin-6-yl]methyl]azetidin-3-yl]oxybenzonitrile]
29 |  | 72 | CC(c1cn2c(-c3ccccc3)ncc2c(=O)[nH]1)N1CC(Oc2ccccc2F)C1 (stereo not shown) [Compound 32, 6-[1-[3-(2-fluorophenoxy)azetidin-1-yl]ethyl]-3-phenyl-7h-imidazo[1,5-a]pyrazin-8-one]
30 | 19 |  | CCC(c1cn2c(-c3ccccc3)ncc2c(=O)[nH]1)N1CC(c2ccc(F)cc2)C1 (stereo not shown) [Compound 12, 6-[1-[3-(4-fluorophenyl)azetidin-1-yl]propyl]-3-phenyl-7h-imidazo[1,5-a]pyrazin-8-one]
31 |  | 79 | O=c1[nH]c(CN2CC(c3ccccn3)C2)cn2c(-c3ccc(F)cc3)ncc12 [Compound 61, 3-(4-fluorophenyl)-6-[[3-(2-pyridyl)azetidin-1-yl]methyl]-7h-imidazo[1,5-a]pyrazin-8-one]
32 | 49 |  | CC(c1cn2c(C3CCCC3)ncc2c(=O)[nH]1)N1CC(Oc2ccccc2F)C1 (stereo not shown) [Compound 52, 3-cyclopentyl-6-[1-[3-(2-fluorophenoxy)azetidin-1-yl]ethyl]-7h-imidazo[1,5-a]pyrazin-8-one]
33 | 35 |  | N#Cc1cccc(C2CN(Cc3cn4c(C5CCOCC5)ncc4c(=O)[nH]3)C2)c1 [Compound 107, 3-[1-[(8-oxo-3-tetrahydropyran-4-yl-7h-imidazo[1,5-a]pyrazin-6-yl)methyl]azetidin-3-yl]benzonitrile]
34 | 18 |  | N#Cc1ccc(OC2CN(Cc3cn4c(C5CCOCC5)ncc4c(=O)[nH]3)C2)cc1 [Compound 80, 4-[1-[(8-oxo-3-tetrahydropyran-4-yl-7h-imidazo[1,5-a]pyrazin-6-yl)methyl]azetidin-3-yl]oxybenzonitrile]
35 |  | 57 | CC(c1cn2c(C3CCCC3)ncc2c(=O)[nH]1)N1CC(c2ccc(N(C)C)cc2)C1 (stereo not shown) [Compound 59, 3-cyclopentyl-6-[1-[3-(4-dimethylaminophenyl)azetidin-1-yl]ethyl]-7h-imidazo[1,5-a]pyrazin-8-one]
36 | 191 |  | CC1CN(Cc2ccc(F)cc2)CC1c1cn2c(-c3ccc(OC(F)(F)F)cc3)ncc2c(=O)[nH]1 (stereo not shown) [Compound 119, 6-[1-[(4-fluorophenyl)methyl]-4-methyl-pyrrolidin-3-yl]-3-[4-(trifluoromethoxy)phenyl]-7h-imidazo[1,5-a]pyrazin-8-one]
37 | 97 |  | O=c1[nH]c(CN2CC(Oc3cccc(F)c3)C2)cn2c(-c3ccccc3)ncc12 [Compound 16, 6-[[3-(3-fluorophenoxy)azetidin-1-yl]methyl]-3-phenyl-7h-imidazo[1,5-a]pyrazin-8-one]
